Results: patent US20150257378A1, “PHEROMONE ATTRACTANTS FOR TAWNY CRAZY ANTS” (STERLING INTERNATIONAL INC., priority 2014, published 2015)

Legend:
[1] = tested on: N. fulva workers; test: Field trapping experiments with baited sticky traps; assay type: in vivo, Nylanderia fulva; settings: for attraction compared with blank control: Exp. 8, full factorial design, n-undecane 6-7 mg/day, 2-tridecanone 1 mg/day, formic acid 27-30 mg/d, three days
Method: Nine field trapping experiments were carried out in an old oak woodland with sandy soil and low grass understory at La Marque, Tex., USA (29° 21′23.73″N; 95° 0′9.47″W), using Terro® “Spider & Insect Traps” (sticky traps; Woodstream Corporation, Lititz, Pa.) or Rescue!® crawling insect sticky traps (described, for example in U.S. Application Publication No. 2013/0318860 A1, herein incorporated by reference in its entirety). All the tested dispensers were placed in the center of sticky surface on the bottom of the trap. An unbaited sticky trap was included in each experiment block for all the experiments as a blank control.
Experiments 1 and 2 were conducted simultaneously in summer. Exp. 1 tested two synthetic Dufour's gland pheromone candidate mixtures identified from N. fulva workers (treatment “A”: a mix of eight compounds at near natural ratios from workers: n-undecane, 2-tridecanone, n-decane, 1-undecene, n-tridecane, 2-dodecanone, 2-tetradecanone, 2-pentadecanone; 41:53:1.2:0.5:1:2:0.3:1) and queens (treatment “B”: a mix of four compounds at near natural ratios: n-undecane, 2-tridecanone, n-tridecane and 2-pentadecanone; 54:40:1:5) plus a synthetic binary blend of the two major components (undecane and 2-tridecanone at 50:50 ratio) identified from both workers and queens (treatment “C”) (Table in FIG. 3) using centrifuge tube dispensers with low loading (30 mg each mixture on a small cotton ball inside an open cap 2-ml centrifuge dispenser) at about 2 mg/day (mg/d) release in a randomized block design (6 blocks) using Terro® “Spider & Insect Traps”. Traps were placed on the ground in lines with 2 meters (m) between traps within each set, 3 m between trap sets. […] Experiment 2 was distanced about 15 m away from Exp. 1. The tawny crazy ant population level at the testing site was relatively high and ubiquitous throughout the landscape, as the tawny crazy ant population was actively foraging over the entire surface of the woodland understory and up every tree. The weather was sunny with a mean daily temperature of 28.6° C.
Experiments 3 and 4 were conducted simultaneously in the fall. Exp. 3 tested two synthetic Dufour's gland pheromone candidate mixtures mimicking the N. fulva workers (treatment “A”: a mix of eight compounds; 100 mg loading) and queens (treatment “B”: a mix of four compounds; 100 mg loading) using centrifuge dispensers (with one small cotton ball in each) with low release rate (ca. 2 mg/d), one positive control (treatment “C”: yellow plastic cap loaded with 1 g of Advance® Granular Carpenter Ant Bait, BASF Corporation, NJ, USA), plus a blank control (“D”), in a randomized block design (6 blocks/sets) using the Rescue!® crawling insect sticky traps. Same as in Exp. 1-2, the traps were placed were placed on the ground in lines with 2 m between traps within each set, 3 m between trap sets. […] Exp. 4 was distanced 20 m from Exp. 3. The weather was sunny with a mean daily temperature of 23.4° C. for days 1 and 2. On Day 3 the weather was overcast with a mean daily temperature of 25.3° C. and 0.97 cm of rainfall.
Experiments 5 and 6 were conducted simultaneously in late fall. Exp. 5 tested potential attraction of N. fulva workers to a synthetic mixture mimicking the full blend of N. fulva worker Dufour's gland pheromone (treatment “A”: a mix of eight compounds; 100 mg mixed with 400 μl canola oil (CO) from a stickpack dispenser; 8-12 mg/d), a synthetic pheromone candidate of N. fulva poison gland, formic acid (FA) (treatment “B”; 438 mg FA mixed with 812 mg of polyurethane inside an open 2-ml centrifuge tube; at 27-30 mg/d release) and their combination (treatment “C”) plus a blank control (“D”) in a randomized block design (6 blocks/sets) using the Rescue!® crawling insect sticky traps. Traps were again placed on the ground in lines with 2 m between traps within each set, 3 m between trap sets.

[2] = tested on: workers of the red imported fire ants; settings: contact/fumigation; cited from earlier work
[3] = tested on: Argentine ant (Linepithema humile) workers; settings: mixed with the baits; cited from earlier work
[4] = tested on: L. humile workers; settings: mixed in insecticide sprays; cited from earlier work

SMILES	attraction compared with blank control [1]	toxicity to fire ant workers [2]	effect on consumption of sugar-based liquid baits by ant workers [3]	effect on killing efficacy of insecticides [4]	significance of difference from blank control ([1]; Exp. 5, late fall, low temperature and rain)	N. fulva workers caught compared with blank control (in words) ([1]; Exp. 5, late fall, low temperature and rain, mix of 8 at 8-12 mg/d, formic acid at 27-30 mg/d)	attraction of N. fulva workers ([1]; Exp. 7, summer, high ant populations, mix of 8 at 8-12 mg/d, formic acid at 27-30 mg/d)	attraction of tawny crazy ant workers ([1]; Exp. 9, fall, n-undecane from stickpack at 9-11 mg/d)
CCCCCCCCCCCC(C)=O [2-tridecanone]	not different from the blank control	strong contact/fumigation toxicity						
CCCCCC/C=C\CCCCCCCC=O [Z-9-hexadecenal]			increase the consumption	increase the killing efficacy				
O=CO [formic acid]	not different from the blank control	strong contact/fumigation toxicity			no significant differences	twice as many	inactive	
CCCCCCCCCCC [n-undecane]	significantly attractive	strong contact/fumigation toxicity						weakly, but significantly attractive
